Results on one compound are retold here after publication PMC1790865, “Plant Carbohydrate Scavenging through TonB-Dependent Receptors: A Feature Shared by Phytopathogenic and Aquatic Bacteria” (PLoS ONE, 2007).

In test [1] the target is T1, SuxC (XCC3357 inner membrane sugar transporter) (Xanthomonas campestris, UniProt Q8P5I4).
T1 construct: gene suc1
The test can be described thus: […]sucrose concentration-dependent uptake in whole wild-type cells (Scatchard, slow phase); uptake lost in suxC insertion mutant. The class given is cell-based.

Test [2] concerns the target T2, SuxA (XCC3358 TonB-dependent receptor) (Xanthomonas campestris, UniProt Q8P5I3).
T2 construct: gene fyuA
The test is described as follows: […]sucrose concentration-dependent uptake in whole wild-type cells (Scatchard, high-affinity phase); uptake lost in suxA deletion mutant and restored by complementation. The class given is cell-based.

T1 sequence (Q8P5I4 entry or part of it): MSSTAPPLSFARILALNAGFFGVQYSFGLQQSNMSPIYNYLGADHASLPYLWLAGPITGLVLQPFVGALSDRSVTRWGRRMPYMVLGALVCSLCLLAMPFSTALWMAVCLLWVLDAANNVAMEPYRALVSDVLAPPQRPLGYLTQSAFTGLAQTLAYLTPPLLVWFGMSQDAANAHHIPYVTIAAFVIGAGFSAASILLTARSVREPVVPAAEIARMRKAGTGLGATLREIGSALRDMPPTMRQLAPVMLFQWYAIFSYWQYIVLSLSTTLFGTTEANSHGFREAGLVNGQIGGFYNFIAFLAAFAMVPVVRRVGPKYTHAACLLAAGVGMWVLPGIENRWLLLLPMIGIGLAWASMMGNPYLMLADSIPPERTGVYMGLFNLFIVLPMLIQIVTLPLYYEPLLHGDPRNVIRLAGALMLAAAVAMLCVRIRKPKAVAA
T2 sequence (Q8P5I3 entry or part of it): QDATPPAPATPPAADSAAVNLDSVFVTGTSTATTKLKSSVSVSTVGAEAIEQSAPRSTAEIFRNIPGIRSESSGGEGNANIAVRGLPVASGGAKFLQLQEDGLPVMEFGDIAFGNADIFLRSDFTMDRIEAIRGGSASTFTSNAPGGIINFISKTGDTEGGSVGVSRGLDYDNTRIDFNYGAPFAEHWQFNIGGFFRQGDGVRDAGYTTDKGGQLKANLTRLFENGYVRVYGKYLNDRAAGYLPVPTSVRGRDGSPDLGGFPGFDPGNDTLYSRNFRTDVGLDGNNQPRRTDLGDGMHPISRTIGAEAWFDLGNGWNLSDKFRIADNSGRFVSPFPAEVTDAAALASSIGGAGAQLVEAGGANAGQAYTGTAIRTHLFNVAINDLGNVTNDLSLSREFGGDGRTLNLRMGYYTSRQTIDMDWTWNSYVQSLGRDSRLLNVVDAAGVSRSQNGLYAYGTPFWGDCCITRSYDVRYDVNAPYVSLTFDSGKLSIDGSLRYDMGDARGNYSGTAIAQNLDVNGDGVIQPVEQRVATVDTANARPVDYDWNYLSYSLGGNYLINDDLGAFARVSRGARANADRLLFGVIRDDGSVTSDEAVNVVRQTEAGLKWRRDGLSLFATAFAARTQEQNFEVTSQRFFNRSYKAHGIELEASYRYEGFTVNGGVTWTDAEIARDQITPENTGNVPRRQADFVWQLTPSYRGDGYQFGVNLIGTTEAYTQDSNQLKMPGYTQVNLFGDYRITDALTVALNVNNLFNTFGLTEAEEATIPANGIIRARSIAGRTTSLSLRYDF

For the compound `OC[C@H]1O[C@@](CO)(O[C@H]2O[C@H](CO)[C@@H](O)[C@H](O)[C@H]2O)[C@@H](O)[C@@H]1O` [sucrose], the Kd in test [1] worked out at 590 nM; in test [2], 33 nM.

A word on the Kd: it is the constant that tells how readily two partners part at equilibrium. Higher therefore signals weaker binding.
